Laboratory results from PubChem BioAssay (NCI).
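Cells were grown in 96-well plates and exposed to each compound for 48 hours at five concentrations; endpoints were interpolated linearly between bracketing concentrations, or set to the highest concentration if not reached. At the GI50, growth is halved. TGI: concentration producing complete growth inhibition.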

Experiments:
Assay in all cases: NCI anticancer screen, dose series, 48 h; in the data active = GI50 below about 0.43 µM; inactive = the rest
EKVX NSCLC = tested on: EKVX NSCLC
786-0 renal = tested on: 786-0 renal
NCI-H23 lung = tested on: NCI-H23 lung
OVCAR-8 ovarian = tested on: OVCAR-8 ovarian
UACC-257 melanoma = tested on: UACC-257 melanoma
ACHN renal = tested on: ACHN renal
SK-MEL-28 melanoma = tested on: SK-MEL-28 melanoma
U251 CNS = tested on: U251 CNS
TK-10 renal = tested on: TK-10 renal
SF-295 CNS = tested on: SF-295 CNS
HOP-62 NSCLC = tested on: HOP-62 NSCLC
OVCAR-3 ovarian = tested on: OVCAR-3 ovarian
MOLT-4 leukemia = tested on: MOLT-4 leukemia
KM12 colon = tested on: KM12 colon
CAKI-1 renal = tested on: CAKI-1 renal
PC-3 prostate = tested on: PC-3 prostate
NCI-H460 lung = tested on: NCI-H460 lung
DU-145 prostate = tested on: DU-145 prostate
RPMI-8226 leukemia = tested on: RPMI-8226 leukemia
NCI-H522 lung = tested on: NCI-H522 lung
MDA-MB-468 breast = tested on: MDA-MB-468 breast
OVCAR-5 ovarian = tested on: OVCAR-5 ovarian
SNB-19 CNS = tested on: SNB-19 CNS
RXF 393 renal = tested on: RXF 393 renal
HCT-116 colon = tested on: HCT-116 colon
UO-31 renal = tested on: UO-31 renal
OVCAR-4 ovarian = tested on: OVCAR-4 ovarian
UACC-62 melanoma = tested on: UACC-62 melanoma
T-47D breast = tested on: T-47D breast
NCI/ADR-RES ovarian = tested on: NCI/ADR-RES ovarian
SK-OV-3 ovarian = tested on: SK-OV-3 ovarian
CCRF-CEM leukemia = tested on: CCRF-CEM leukemia
MALME-3M melanoma = tested on: MALME-3M melanoma
M14 melanoma = tested on: M14 melanoma
MCF7 breast = tested on: MCF7 breast
SF-268 CNS = tested on: SF-268 CNS
SN12C renal = tested on: SN12C renal
HS 578T breast = tested on: HS 578T breast
HT29 colon = tested on: HT29 colon
BT-549 breast = tested on: BT-549 breast
SK-MEL-5 melanoma = tested on: SK-MEL-5 melanoma
IGROV1 ovarian = tested on: IGROV1 ovarian
COLO 205 colon = tested on: COLO 205 colon
MDA-MB-435 = tested on: MDA-MB-435
NCI-H226 lung = tested on: NCI-H226 lung
HCT-15 colon = tested on: HCT-15 colon
SW-620 colon = tested on: SW-620 colon
HCC-2998 colon = tested on: HCC-2998 colon
SR leukemia = tested on: SR leukemia
MDA-MB-231 breast = tested on: MDA-MB-231 breast
A549 NSCLC = tested on: A549 NSCLC
SF-539 CNS = tested on: SF-539 CNS
HL-60(TB) leukemia = tested on: HL-60(TB) leukemia
A498 renal = tested on: A498 renal
K-562 leukemia = tested on: K-562 leukemia
LOX IMVI melanoma = tested on: LOX IMVI melanoma
HOP-92 NSCLC = tested on: HOP-92 NSCLC

Cc1ccc(-c2ccc(SCC(=O)Nc3ccc(Cl)c(C(F)(F)F)c3)nn2)cc1
52.8 µM: TGI (TK-10 renal)
37.7 µM: TGI (786-0 renal)
38.5 µM: TGI (U251 CNS)
59.5 µM: TGI (HOP-92 NSCLC)
24.1 µM: TGI (HOP-62 NSCLC)
56.6 µM: TGI (SNB-19 CNS)
38 µM: TGI (A498 renal)
2.25 µM: TGI (MDA-MB-468 breast)
46.4 µM: TGI (IGROV1 ovarian)
inactive: GI50 (EKVX NSCLC) 2.93 µM | GI50 (786-0 renal) 0.892 µM | GI50 (NCI-H23 lung) 2 µM | GI50 (OVCAR-8 ovarian) 2.71 µM | GI50 (UACC-257 melanoma) 12.1 µM | GI50 (ACHN renal) 6.84 µM | GI50 (SK-MEL-28 melanoma) 5.77 µM | GI50 (U251 CNS) 1.47 µM | GI50 (TK-10 renal) 12.7 µM | GI50 (SF-295 CNS) 0.5 µM | GI50 (HOP-62 NSCLC) 1.23 µM | GI50 (MOLT-4 leukemia) 0.578 µM | GI50 (KM12 colon) 0.732 µM | GI50 (CAKI-1 renal) 1.72 µM | GI50 (PC-3 prostate) 0.878 µM | GI50 (NCI-H460 lung) 3.22 µM | GI50 (DU-145 prostate) 2.37 µM | GI50 (RPMI-8226 leukemia) 0.986 µM | GI50 (NCI-H522 lung) 0.528 µM | GI50 (OVCAR-5 ovarian) 3.24 µM | GI50 (SNB-19 CNS) 3.21 µM | GI50 (RXF 393 renal) 1.1 µM | GI50 (HCT-116 colon) 0.445 µM | GI50 (UO-31 renal) 3.16 µM | GI50 (OVCAR-4 ovarian) 5.86 µM | GI50 (UACC-62 melanoma) 0.531 µM | GI50 (T-47D breast) 0.594 µM | GI50 (SK-OV-3 ovarian) 3.82 µM | GI50 (CCRF-CEM leukemia) 0.459 µM | GI50 (MALME-3M melanoma) 0.589 µM | GI50 (M14 melanoma) 0.538 µM | GI50 (MCF7 breast) 0.563 µM | GI50 (SF-268 CNS) 9.67 µM | GI50 (SN12C renal) 4.85 µM | GI50 (HS 578T breast) 1.05 µM | GI50 (HT29 colon) 0.512 µM | GI50 (BT-549 breast) 0.829 µM | GI50 (SK-MEL-5 melanoma) 0.435 µM | GI50 (IGROV1 ovarian) 1.46 µM | GI50 (COLO 205 colon) 1.06 µM | GI50 (NCI-H226 lung) 8.36 µM | GI50 (HCC-2998 colon) 1.29 µM | GI50 (MDA-MB-231 breast) 1.15 µM | GI50 (A549 NSCLC) 5.34 µM | GI50 (SF-539 CNS) 0.754 µM | GI50 (A498 renal) 3.75 µM | GI50 (LOX IMVI melanoma) 2.48 µM | GI50 (HOP-92 NSCLC) 2.95 µM
4 µM: TGI (NCI-H522 lung)
8.14 µM: TGI (HS 578T breast)
19.3 µM: TGI (MDA-MB-231 breast)
10.5 µM: TGI (HCC-2998 colon)
39.4 µM: TGI (UACC-62 melanoma)
0.513 µM: TGI (MDA-MB-435)
8.22 µM: TGI (SF-295 CNS)
32.7 µM: TGI (NCI-H23 lung)
36.5 µM: TGI (MALME-3M melanoma)
2.14 µM: TGI (NCI/ADR-RES ovarian)
3.51 µM: TGI (COLO 205 colon)
17.9 µM: TGI (DU-145 prostate)
> 100 µM: TGI (EKVX NSCLC) | TGI (OVCAR-8 ovarian) | TGI (UACC-257 melanoma) | TGI (ACHN renal) | TGI (SK-MEL-28 melanoma) | TGI (MOLT-4 leukemia) | TGI (KM12 colon) | TGI (CAKI-1 renal) | TGI (PC-3 prostate) | TGI (NCI-H460 lung) | TGI (RPMI-8226 leukemia) | TGI (OVCAR-5 ovarian) | TGI (HCT-116 colon) | TGI (UO-31 renal) | TGI (OVCAR-4 ovarian) | TGI (T-47D breast) | TGI (CCRF-CEM leukemia) | TGI (M14 melanoma) | TGI (MCF7 breast) | TGI (SF-268 CNS) | TGI (SN12C renal) | TGI (HT29 colon) | TGI (NCI-H226 lung) | TGI (HCT-15 colon) | TGI (SW-620 colon) | TGI (SR leukemia) | TGI (A549 NSCLC) | TGI (K-562 leukemia) | TGI (LOX IMVI melanoma)
65.3 µM: TGI (SK-OV-3 ovarian)
3.35 µM: TGI (SF-539 CNS)
active: GI50 (OVCAR-3 ovarian) 0.409 µM | GI50 (MDA-MB-468 breast) 0.371 µM | GI50 (NCI/ADR-RES ovarian) 0.393 µM | GI50 (MDA-MB-435) 0.22 µM | GI50 (HCT-15 colon) 0.405 µM | GI50 (SW-620 colon) 0.393 µM | GI50 (SR leukemia) 0.34 µM | GI50 (HL-60(TB) leukemia) 0.319 µM | GI50 (K-562 leukemia) 0.419 µM
8.76 µM: TGI (SK-MEL-5 melanoma)
2.32 µM: TGI (HL-60(TB) leukemia)
46.2 µM: TGI (BT-549 breast)
5.93 µM: TGI (RXF 393 renal)
1.94 µM: TGI (OVCAR-3 ovarian)
